Results from patent US20220259164A1, “USE OF AMINOTHIOL COMPOUNDS AS CEREBRAL NERVE OR HEART PROTECTIVE AGENT” (SHANGHAI KECHOW PHARMA, INC., priority 2019, published 2022).
Several values for one entry are separate records, joined by “and”; a condition that tells them apart may be missing. Equal values may be shown once. Where a SMILES comes first, the peptide text is derived from it. [ ]: non-standard residue; d: D form. NMeC = CN[C@@H](CS)C(=O)O

How the values were obtained:
[1] = system: bleomycin (BLM)-induced scleroderma mouse model; assay: H2O2 level in skin lesion, BLM-induced scleroderma mouse model; assay type: in vivo, mice; settings: compound A (hydrochloride) 600 mg/kg/d by gavage or compound B (trifluoroacetate) 200 mg/kg/d i.p., 28 days with BLM
Description: (§1) Materials: C57BL/6 female mice, weighing 20-25 g, were purchased from Shanghai SLAC Laboratory Animal Co., Ltd. Using a random number table method, 24 mice were divided into a blank control group (1), a scleroderma model group (2), a scleroderma+compound A treatment group (3), and a scleroderma+compound B treatment group (4), with 6 mice in each group. Bleomycin (BLM) was purchased from Sigma. An H-E staining kit was purchased from Beijing Solarbio Science & Technology Co., Ltd. Compound A used in this example was in the form of a hydrochloride thereof, and compound B was in the form of a trifluoroacetate thereof.
Method: The intended injection site (area 1 cm^2) of the mice was shaved using an electric shaver. […] Conventional iodine tincture was used to disinfect the back skin of the mice, and a local diseased skin tissue was surgically cut, fixed in 4% paraformaldehyde, embedded in paraffin, sectioned, and analyzed by H-E staining. […]
Method: Part of the skin lesion tissue of the mice was taken, and the contents of hydroxyproline and hydrogen peroxide in the skin lesion region were detected according to the requirements in the kit instructions.

[2] = system: cisplatin-induced nephrotoxicity in SD rats; assay: Cisplatin-induced nephrotoxicity in SD rats: blood creatinine and urea nitrogen; assay type: in vivo, rat; settings: for Effect on cisplatin-induced increase of blood creatinine and urea nitrogen (in words): 30 min prior to cisplatin 5 mg/kg i.p.: compound B 200 mg/kg i.p., compound A 800 mg/kg p.o., amifostine 200 mg/kg i.p., day 5; for Creatinine / Urea nitrogen: whole blood day 5, individual rats
Protocol: Healthy male SPF grade SD rats (body weight 250-300 g) were selected. Control group: PBS […] Cisplatin+compound B group: 5 mg/kg i.p.+compound B at 200 mg/kg i.p., with compound B being administered 30 min prior to cisplatin administration Cisplatin+amifostine group: 5 mg/kg i.p.+AMI at 200 mg/kg i.p., with AMI being administered 30 min prior to cisplatin administration Cisplatin+compound A group: 5 mg/kg i.p.+compound A at 800 mg/kg p.o., with compound A being administered 30 min prior to cisplatin administration (1) The SD rats used in the experiment were weighed, labeled, and evenly divided into 5 groups, with 3 SD rats in each group. (2) The compound B, compound A, and AMI groups were respectively administered at the planned concentrations. […] (3) The rats were weighed and recorded daily, and on day 5, blood was taken from the intraocular canthus of the SD rats and placed in an anticoagulant tube.

[3] = Body weight of cisplatin-induced SD rats; assay type: in vivo, rat; settings: 30 min prior to cisplatin 5 mg/kg i.p.: compound B 200 mg/kg i.p., compound A 800 mg/kg p.o., amifostine 200 mg/kg i.p.; weighed daily
Protocol: Healthy male SPF grade SD rats (body weight 250-300 g) were selected. Cisplatin+compound B group: 5 mg/kg i.p.+compound B at 200 mg/kg i.p., with compound B being administered 30 min prior to cisplatin administration Cisplatin+amifostine group: 5 mg/kg i.p.+AMI at 200 mg/kg i.p., with AMI being administered 30 min prior to cisplatin administration Cisplatin+compound A group: 5 mg/kg i.p.+compound A at 800 mg/kg p.o., with compound A being administered 30 min prior to cisplatin administration (1) The SD rats used in the experiment were weighed, labeled, and evenly divided into 5 groups, with 3 SD rats in each group. (2) The compound B, compound A, and AMI groups were respectively administered at the planned concentrations. […] (3) The rats were weighed and recorded daily, and on day 5, blood was taken from the intraocular canthus of the SD rats and placed in an anticoagulant tube.

[4] = system: bleomycin (BLM)-induced scleroderma mouse model; assay: Dermal fibrosis in bleomycin (BLM)-induced scleroderma mouse model (H-E staining); assay type: in vivo, mice; settings: compound A (hydrochloride) 600 mg/kg/d by gavage or compound B (trifluoroacetate) 200 mg/kg/d i.p., 28 days with BLM; compared with BLM model group
Description: as §1
Method: The intended injection site (area 1 cm^2) of the mice was shaved using an electric shaver. The mice in groups (1) and (2) were intraperitoneally injected with PBS, the mice in group (3) were given compound A (600 mg/kg/d, dissolved in PBS) by gavage, and the mice in group (4) were intraperitoneally injected with compound B (200 mg/kg/d, dissolved in PBS). Immediately thereafter, the mice in group (1) were injected with PBS subcutaneously on the back, and the mice in groups (2) and (4) were injected with BLM (1 mg/ml, dissolved in PBS) subcutaneously on the back; and 15 min later, the mice in group (3) were injected with BLM (1 mg/ml, dissolved in PBS) subcutaneously on the back. After 28 days of continuous administration once a day, the animals were sacrificed on day 29 by cervical dislocation. Conventional iodine tincture was used to disinfect the back skin of the mice, and a local diseased skin tissue was surgically cut, fixed in 4% paraformaldehyde, embedded in paraffin, sectioned, and analyzed by H-E staining.

[5] = system: rat myocardial infarction model (coronary ligation 30 min, reperfusion); assay: Myocardial infarction model: myocardial infarction range (TTC staining); assay type: in vivo; settings: for Infarction range (%): x ± s, n = 10; for Improvement rate (%) of myocardial infarction range: compared with model group
Protocol: 1. The rats were grouped and administered according to the following methods (2) Compound B (i.v.) at 100 mg/kg (3) Compound A (i.v.) at 100 mg/kg (4) Compound A (oral) at 500 mg/kg (5) Isosorbide mononitrate injection (i.v.) at 1 mg/kg (equivalent to clinical equivalent dose). There were 10 rats in each group, and the rats were administered intravenously immediately after 30 min of ischemia and reperfusion, i.v. 10% 1 min+i.v. drip 90% 30 min. The administration volume was 2 ml/rat. Compound A (oral) at 500 mg/kg was administered intragastrically 2 h after reperfusion when the animal was awake, and the administration volume was 10 ml/kg. Note: Compounds A and B used in this example were in the form of hydrochloride salts thereof. Given intraperitoneal injection of 3% sodium pentobarbital at 60 mg/kg for general anesthesia, the rats were fixed on an operating table in the supine position. The surgical field of the anterolateral chest was depilated and routinely disinfected. The skin and muscular layer were cut open, purse-string suture was performed on the muscular layer, the chest was opened on the left at the fourth intercostal space, and the heart was pulled out with a ring-shaped retractor. At the position of the anterior descending coronary artery 3-4 mm below the left atrial appendage, a 6/0 damage-free silk thread was threaded, and a nylon thread with a diameter of 1.6 mm was juxtaposed and ligated together with the anterior descending coronary artery, while the other end was left outside the body for later use. The heart was placed back into the chest cavity, the air in the chest cavity was emptied, and the chest cavity was closed. 30 min after ligation, the nylon thread was carefully removed for reperfusion. Compared with the normal lead II electrocardiogram (ECG-II), ST segment elevation in ECG-II by 0.1 mV or more 30 min after coronary artery ligation was regarded as successful ischemia.

[6] = compound A (trifluoroacetate) 800 mg/kg p.o. 30 min prior to cisplatin 5 mg/kg i.p.
[7] = compound B (trifluoroacetate) 200 mg/kg i.p. 30 min prior to cisplatin 5 mg/kg i.p.

Structure (SMILES)	Concentration of H2O2 in the skin [1]	Effect on cisplatin-induced increase of blood creatinine and urea nitrogen (in words) [2]	Creatinine [2, 6]	Urea nitrogen [2, 6]	Change in body weight of cisplatin-induced SD rats [3]	Collagen in the dermis and fat layer (H-E staining) [4]	Thickness of the dermis in the skin lesion area [4]	Infarction range (%) ([5]; compound A (hydrochloride) i.v. 100 mg/kg after 30 min ischemia and reperfusion)	Improvement rate (%) of myocardial infarction range ([5]; compound A (hydrochloride) i.v. 100 mg/kg) [%]	Infarction range (%) ([5]; compound A (hydrochloride) oral 500 mg/kg 2 h after reperfusion)	Improvement rate (%) of myocardial infarction range ([5]; compound A (hydrochloride) oral 500 mg/kg) [%]	Creatinine [2, 7]	Urea nitrogen [2, 7]	Infarction range (%) ([5]; compound B (hydrochloride) i.v. 100 mg/kg after 30 min ischemia and reperfusion)	Improvement rate (%) of myocardial infarction range ([5]; compound B (hydrochloride) i.v. 100 mg/kg) [%]
CNC(=O)[C@H](CS)NC(=O)[C@H](CS)NC [Compound A, (R)-3-mercapto-N—((R)-3-mercapto-1-(methylamino)-1-oxoprop-2-yl)-2-(methylamino)propionamide] (H-[NMeC]-Cys-NHMe)	reduced	significantly reduce the increased blood creatinine and urea nitrogen levels	28.4 µmol/L and 18.1 µmol/L and 17.1 µmol/L	7.68 mmol/L and 7.16 mmol/L and 10.21 mmol/L	the degree of decrease was significantly better than that of the cisplatin group	the collagen thickness in the dermis was significantly reduced and the fat layer was significantly thickened	could better reduce the thickness of the dermis at the skin lesion site	30.5 ± 11	24.5	28.9 ± 12.2	28.5	–	–	–	–
CNC(=O)[C@H](CS)NC(=O)[C@H](CS)NC(=O)[C@H](CS)NC [Compound B, (R)-3-mercapto-N—((R)-3-mercapto-1-(((R)-3-mercapto-1-(methylamino)-1-oxoprop-2-yl)amino)-1-oxoprop-2-yl)-2-(methylamino)propionamide] (H-[NMeC]-Cys-Cys-NHMe)	reduced	significantly reduce the increased blood creatinine and urea nitrogen levels	–	–	the body weight increased rather than decrease	collagen proliferation in the dermis in the compound B treatment group was improved	reduced (p<0.01)	–	–	–	–	18.1 µmol/L and 14.7 µmol/L and 30.4 µmol/L	7.28 mmol/L and 5.71 mmol/L and 6.77 mmol/L	30.2 ± 8.2	25.2
